Patent US20240150360A1 (THE REGENTS OF THE UNIVERSITY OF MICHIGAN, priority 2021, published 2024)

Legend:
HL60 = test: Cell growth inhibition in HL60; type: cell-based; details: Homo sapiens, HL-60, HL60 cells; read-out: Cell Growth Inhibition (IC50) HL60
22Rv1 cells = test: Cell growth inhibition assay (CellTiter-Glo) in 22Rv1; type: cell-based, human; details: Homo sapiens, 22Rv1, 96 h, 22Rv1 cells, 96 h incubation; read-out: Cell Growth Inhibition (IC50) 22Rv1
Outline: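 22Rv1 prostate cancer cells (passages 3-8, DMEM with 10% FBS) were seeded at 4000 cells/well with compound, 3-fold dilutions from 10 μM final. After 96 h at 37° C and 5% CO2, growth was read by CellTiter-Glo 2.0 luminescence.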

CBP = biological target: T1, CBP (Homo sapiens, UniProt Q92793); test: CBP degradation in 22Rv1 cells (5 h); type: cell-based; details: 22Rv1 cells, 5 h; for Dmax: 22Rv1, 5 h, read-out: CBP Degradation (22Rv1, 5 h) DCmax
T1 construct: endogenous in cells; host or cells: 22Rv1 (ATCC CRL-2505) human prostate cancer cells
Excerpt: (§1) Biological Assays. […] Cells with 3-8 passages after purchase were used in experiments.

P300 = biological target: T2, P300 (Homo sapiens, UniProt Q09472); test: P300 degradation in 22Rv1 cells (5 h); type: cell-based; details: 22Rv1 cells, 5 h; for Dmax: read-out: P300 Degradation (22Rv1, 5 h) DCmax
T2 construct: endogenous in cells; host or cells: 22Rv1 (ATCC CRL-2505) human prostate cancer cells
Excerpt: as §1

T2 sequence (Q09472 whole entry): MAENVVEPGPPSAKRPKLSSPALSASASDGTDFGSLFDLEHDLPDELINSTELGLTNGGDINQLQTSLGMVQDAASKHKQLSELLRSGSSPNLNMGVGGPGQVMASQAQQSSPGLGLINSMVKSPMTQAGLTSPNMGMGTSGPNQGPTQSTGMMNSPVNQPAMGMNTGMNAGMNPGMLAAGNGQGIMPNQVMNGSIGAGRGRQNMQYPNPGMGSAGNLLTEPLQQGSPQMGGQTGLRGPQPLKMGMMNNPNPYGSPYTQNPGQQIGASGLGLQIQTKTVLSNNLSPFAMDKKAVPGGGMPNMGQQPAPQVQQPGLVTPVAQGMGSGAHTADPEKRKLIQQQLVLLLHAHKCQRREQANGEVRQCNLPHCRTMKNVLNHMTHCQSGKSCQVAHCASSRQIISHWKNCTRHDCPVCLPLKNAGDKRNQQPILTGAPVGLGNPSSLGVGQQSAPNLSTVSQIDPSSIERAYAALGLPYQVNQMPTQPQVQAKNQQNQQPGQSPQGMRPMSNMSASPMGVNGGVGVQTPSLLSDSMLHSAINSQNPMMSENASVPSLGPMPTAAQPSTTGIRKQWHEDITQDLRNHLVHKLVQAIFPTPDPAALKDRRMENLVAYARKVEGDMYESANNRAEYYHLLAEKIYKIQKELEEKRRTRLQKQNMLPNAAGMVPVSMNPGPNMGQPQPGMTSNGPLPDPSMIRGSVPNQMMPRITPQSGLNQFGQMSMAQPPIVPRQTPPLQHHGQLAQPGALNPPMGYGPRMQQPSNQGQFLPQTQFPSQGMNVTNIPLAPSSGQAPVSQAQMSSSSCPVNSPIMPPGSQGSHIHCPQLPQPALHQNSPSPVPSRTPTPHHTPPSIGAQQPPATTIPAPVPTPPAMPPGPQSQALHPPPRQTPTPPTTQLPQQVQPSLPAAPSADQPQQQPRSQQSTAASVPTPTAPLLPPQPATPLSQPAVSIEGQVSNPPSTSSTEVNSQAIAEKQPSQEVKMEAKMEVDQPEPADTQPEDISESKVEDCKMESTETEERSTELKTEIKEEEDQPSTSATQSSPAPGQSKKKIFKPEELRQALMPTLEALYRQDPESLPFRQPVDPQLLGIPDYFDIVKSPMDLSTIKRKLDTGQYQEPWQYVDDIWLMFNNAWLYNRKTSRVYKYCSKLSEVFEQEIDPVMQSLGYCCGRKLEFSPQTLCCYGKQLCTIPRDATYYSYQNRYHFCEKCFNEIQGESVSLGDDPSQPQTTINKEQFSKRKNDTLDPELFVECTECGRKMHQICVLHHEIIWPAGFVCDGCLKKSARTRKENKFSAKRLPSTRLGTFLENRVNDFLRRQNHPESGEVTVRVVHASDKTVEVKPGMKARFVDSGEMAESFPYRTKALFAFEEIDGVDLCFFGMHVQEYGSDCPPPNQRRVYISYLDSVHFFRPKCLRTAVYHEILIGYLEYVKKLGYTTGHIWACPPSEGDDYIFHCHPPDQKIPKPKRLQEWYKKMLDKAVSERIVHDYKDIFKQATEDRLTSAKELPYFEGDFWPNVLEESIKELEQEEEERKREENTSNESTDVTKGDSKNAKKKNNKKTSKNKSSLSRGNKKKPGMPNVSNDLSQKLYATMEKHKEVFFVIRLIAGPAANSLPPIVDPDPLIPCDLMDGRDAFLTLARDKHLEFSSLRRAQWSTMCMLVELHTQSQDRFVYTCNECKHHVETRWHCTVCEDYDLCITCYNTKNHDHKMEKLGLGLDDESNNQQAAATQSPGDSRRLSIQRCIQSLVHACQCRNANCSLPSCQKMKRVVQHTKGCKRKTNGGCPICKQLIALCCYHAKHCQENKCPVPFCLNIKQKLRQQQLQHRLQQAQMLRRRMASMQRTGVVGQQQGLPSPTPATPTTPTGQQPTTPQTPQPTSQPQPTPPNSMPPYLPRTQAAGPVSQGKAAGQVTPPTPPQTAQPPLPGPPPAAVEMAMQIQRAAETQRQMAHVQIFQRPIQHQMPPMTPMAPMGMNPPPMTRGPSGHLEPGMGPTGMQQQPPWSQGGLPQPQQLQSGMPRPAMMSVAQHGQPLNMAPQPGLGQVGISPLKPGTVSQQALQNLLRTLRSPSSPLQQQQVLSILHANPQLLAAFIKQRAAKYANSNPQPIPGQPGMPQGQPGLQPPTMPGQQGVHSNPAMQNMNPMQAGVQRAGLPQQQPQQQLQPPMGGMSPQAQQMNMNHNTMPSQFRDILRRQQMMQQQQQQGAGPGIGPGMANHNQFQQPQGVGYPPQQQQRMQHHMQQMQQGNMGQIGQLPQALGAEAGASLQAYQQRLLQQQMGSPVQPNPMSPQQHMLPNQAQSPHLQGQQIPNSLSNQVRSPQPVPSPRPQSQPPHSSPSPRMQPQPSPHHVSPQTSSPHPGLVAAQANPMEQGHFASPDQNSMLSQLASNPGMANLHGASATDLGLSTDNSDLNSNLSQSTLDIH
T1 sequence (Q92793 whole entry): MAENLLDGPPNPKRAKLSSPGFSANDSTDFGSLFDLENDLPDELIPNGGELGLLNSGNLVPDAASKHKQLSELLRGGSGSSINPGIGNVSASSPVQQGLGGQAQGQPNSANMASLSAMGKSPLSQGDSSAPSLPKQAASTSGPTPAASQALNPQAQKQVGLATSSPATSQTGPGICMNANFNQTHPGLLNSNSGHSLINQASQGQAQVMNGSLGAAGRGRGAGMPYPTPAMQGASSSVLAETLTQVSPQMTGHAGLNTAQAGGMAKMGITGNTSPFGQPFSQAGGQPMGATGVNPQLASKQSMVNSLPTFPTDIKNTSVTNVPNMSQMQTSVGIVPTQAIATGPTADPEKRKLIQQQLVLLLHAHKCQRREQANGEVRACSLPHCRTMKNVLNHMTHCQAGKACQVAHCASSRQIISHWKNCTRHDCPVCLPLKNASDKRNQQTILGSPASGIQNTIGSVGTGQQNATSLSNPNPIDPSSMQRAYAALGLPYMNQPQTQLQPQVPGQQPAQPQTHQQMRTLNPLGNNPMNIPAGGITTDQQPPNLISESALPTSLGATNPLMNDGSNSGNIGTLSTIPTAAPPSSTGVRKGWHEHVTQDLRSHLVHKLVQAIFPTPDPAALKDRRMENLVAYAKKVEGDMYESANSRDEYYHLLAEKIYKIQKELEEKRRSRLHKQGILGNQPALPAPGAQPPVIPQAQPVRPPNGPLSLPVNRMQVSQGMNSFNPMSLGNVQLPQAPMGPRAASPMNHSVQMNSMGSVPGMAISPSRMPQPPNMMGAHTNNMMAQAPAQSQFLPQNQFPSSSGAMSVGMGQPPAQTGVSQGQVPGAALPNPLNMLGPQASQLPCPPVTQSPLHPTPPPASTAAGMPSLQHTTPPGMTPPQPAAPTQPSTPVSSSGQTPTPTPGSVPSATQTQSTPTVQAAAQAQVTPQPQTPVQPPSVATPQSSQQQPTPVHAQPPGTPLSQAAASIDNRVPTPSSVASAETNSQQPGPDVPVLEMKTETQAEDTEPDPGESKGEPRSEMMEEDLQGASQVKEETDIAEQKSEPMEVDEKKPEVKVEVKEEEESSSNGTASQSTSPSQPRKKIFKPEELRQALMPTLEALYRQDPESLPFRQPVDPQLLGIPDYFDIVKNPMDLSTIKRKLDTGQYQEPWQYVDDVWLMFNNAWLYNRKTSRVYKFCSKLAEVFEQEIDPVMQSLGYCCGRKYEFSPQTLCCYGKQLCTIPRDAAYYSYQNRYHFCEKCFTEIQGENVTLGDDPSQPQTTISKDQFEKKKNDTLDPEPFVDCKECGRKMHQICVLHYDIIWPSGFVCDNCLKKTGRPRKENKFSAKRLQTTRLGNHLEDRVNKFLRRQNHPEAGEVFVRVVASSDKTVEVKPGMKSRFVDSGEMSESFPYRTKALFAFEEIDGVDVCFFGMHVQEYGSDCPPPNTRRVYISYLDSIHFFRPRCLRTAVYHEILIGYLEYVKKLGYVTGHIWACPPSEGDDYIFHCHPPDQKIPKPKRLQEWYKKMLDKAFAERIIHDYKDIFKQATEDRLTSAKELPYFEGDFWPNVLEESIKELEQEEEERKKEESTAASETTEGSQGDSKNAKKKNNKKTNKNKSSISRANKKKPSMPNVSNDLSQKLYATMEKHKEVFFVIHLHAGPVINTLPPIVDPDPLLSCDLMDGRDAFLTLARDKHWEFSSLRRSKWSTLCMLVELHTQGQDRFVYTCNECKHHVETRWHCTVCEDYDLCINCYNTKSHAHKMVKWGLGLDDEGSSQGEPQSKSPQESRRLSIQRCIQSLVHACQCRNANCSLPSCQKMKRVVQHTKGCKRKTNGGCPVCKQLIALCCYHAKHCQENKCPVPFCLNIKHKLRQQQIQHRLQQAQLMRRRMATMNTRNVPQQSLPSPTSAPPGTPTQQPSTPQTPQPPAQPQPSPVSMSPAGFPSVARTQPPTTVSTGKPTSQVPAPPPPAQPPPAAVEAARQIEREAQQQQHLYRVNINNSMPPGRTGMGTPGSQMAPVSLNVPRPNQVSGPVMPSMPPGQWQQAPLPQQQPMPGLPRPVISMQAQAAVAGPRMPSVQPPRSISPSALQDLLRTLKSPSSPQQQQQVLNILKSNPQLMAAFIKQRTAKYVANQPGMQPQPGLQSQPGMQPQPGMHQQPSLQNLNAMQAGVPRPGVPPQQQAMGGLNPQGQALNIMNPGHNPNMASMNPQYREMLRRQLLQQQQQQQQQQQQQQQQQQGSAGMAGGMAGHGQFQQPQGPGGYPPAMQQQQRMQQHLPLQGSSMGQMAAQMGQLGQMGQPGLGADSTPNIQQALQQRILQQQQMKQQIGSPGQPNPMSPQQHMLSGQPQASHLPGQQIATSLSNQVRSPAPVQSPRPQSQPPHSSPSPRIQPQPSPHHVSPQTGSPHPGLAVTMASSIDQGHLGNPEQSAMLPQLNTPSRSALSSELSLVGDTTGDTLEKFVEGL

| Structure (SMILES) | IC50 (HL60) [nM] | IC50 (22Rv1 cells) [nM] | Dmax (CBP) [%] | DC50 (CBP) [nM] | DC50 (P300) [nM] | Dmax (P300) [%] |
| --- | --- | --- | --- | --- | --- | --- |
| CC(=O)N1CCc2c(c(N3CCCc4cc(Cl)c(C(F)F)cc43)nn2C2CCN(C(=O)CN3Cc4cc5c(cc4C3)C(=O)N(C3CCC(=O)NC3=O)C5=O)CC2)C1 (stereo not drawn) [CP-017, 6-(2-(4-(5-acetyl-3-(6-chloro-7-(difluoromethyl)-3,4-dihydroquinolin-1(2H)-yl)-4,5,6,7-tetrahydro-1H-pyrazolo[4,3-c]pyridin-1-yl)piperidin-1-yl)-2-oxoethyl)-2-(2,6-dioxopiperidin-3-yl)-6,7-dihydropyrrolo[3,4-f]isoindole-1,3(2H,5H)-dione] | > 10000 | > 10000 | < 50 | > 1000 | > 1000 | < 50 |
| CC(=O)N1CCc2c(c(N3CCCc4cc(Cl)c(C(F)F)cc43)nn2C2CCN(C(=O)CN3CCc4cc5c(cc4C3)C(=O)N(C3CCC(=O)NC3=O)C5=O)CC2)C1 (stereo not drawn) [CP-018, 6-(2-(4-(5-acetyl-3-(6-chloro-7-(difluoromethyl)-3,4-dihydroquinolin-1(2H)-yl)-4,5,6,7-tetrahydro-1H-pyrazolo[4,3-c]pyridin-1-yl)piperidin-1-yl)-2-oxoethyl)-2-(2,6-dioxopiperidin-3-yl)-5,6,7,8-tetrahydro-1H-pyrrolo[3,4-g]isoquinoline-1,3(2H)-dione] | > 10000 | > 10000 | < 50 | < 1000 | > 1000 | < 50 |
| CC(=O)c1cc2c(cc1C(F)F)N(c1nn(C3CCN(C(=O)CN4Cc5cc6c(cc5C4)C(=O)N(C4CCC(=O)NC4=O)C6=O)CC3)c3c1CN(C(C)=O)CC3)CCC2 (stereo not drawn) [CP-019, 6-(2-(4-(5-acetyl-3-(6-acetyl-7-(difluoromethyl)-3,4-dihydroquinolin-1(2H)-yl)-4,5,6,7-tetrahydro-1H-pyrazolo[4,3-c]pyridin-1-yl)piperidin-1-yl)-2-oxoethyl)-2-(2,6-dioxopiperidin-3-yl)-6,7-dihydropyrrolo[3,4-f]isoindole-1,3(2H,5H)-dione] | < 1000 | > 10000 | < 50 | > 1000 | > 1000 | < 50 |
| CC(=O)c1cc2c(cc1C(F)F)N(c1nn(C3CCN(C(=O)CN4CCc5cc6c(cc5C4)C(=O)N(C4CCC(=O)NC4=O)C6=O)CC3)c3c1CN(C(C)=O)CC3)CCC2 (stereo not drawn) [CP-020, 6-(2-(4-(5-acetyl-3-(6-acetyl-7-(difluoromethyl)-3,4-dihydroquinolin-1(2H)-yl)-4,5,6,7-tetrahydro-1H-pyrazolo[4,3-c]pyridin-1-yl)piperidin-1-yl)-2-oxoethyl)-2-(2,6-dioxopiperidin-3-yl)-5,6,7,8-tetrahydro-1H-pyrrolo[3,4-g]isoquinoline-1,3(2H)-dione] | < 1000 | > 10000 | < 50 | > 1000 | > 1000 | < 50 |
| CC(=O)N1CCc2c(c(N3CCCc4cc(-c5cnn(C)c5)c(C(F)F)cc43)nn2C2CCC(N3CCc4cc5c(cc4C3)C(=O)N(C3CCC(=O)NC3=O)C5=O)CC2)C1 (stereo not drawn) [CP-038, 6-(4-(5-acetyl-3-(7-(difluoromethyl)-6-(1-methyl-1H-pyrazol-4-yl)-3,4-dihydroquinolin-1(2H)-yl)-4,5,6,7-tetrahydro-1H-pyrazolo[4,3-c]pyridin-1-yl)cyclohexyl)-2-(2,6-dioxopiperidin-3-yl)-5,6,7,8-tetrahydro-1H-pyrrolo[3,4-g]isoquinoline-1,3(2H)-dione] | < 100 | < 100 | > 90 | < 10 | < 10 | > 90 |
| CC(=O)N1CCc2c(c(N3CCCc4cc(-c5cnn(C)c5)c(C(F)F)cc43)nn2C[C@H]2CC[C@H](N3CCc4cc5c(cc4C3)C(=O)N(C3CCC(=O)NC3=O)C5=O)CC2)C1 (stereo partly drawn) [CP-041, 6-(4-((5-acetyl-3-(7-(difluoromethyl)-6-(1-methyl-1H-pyrazol-4-yl)-3,4-dihydroquinolin-1(2H)-yl)-4,5,6,7-tetrahydro-1H-pyrazolo[4,3-c]pyridin-1-yl)methyl)cyclohexyl)-2-(2,6-dioxopiperidin-3-yl)-5,6,7,8-tetrahydro-1H-pyrrolo[3,4-g]isoquinoline-1,3(2H)-dione] | < 100 | < 1000 | > 90 | < 10 | < 10 | > 90 |
| CC(=O)N1CCc2c(c(N3CCCc4cc(-c5cnn(C)c5)c(C(F)F)cc43)nn2C2CCC(CCN3CCc4cc5c(cc4C3)C(=O)N(C3CCC(=O)NC3=O)C5=O)CC2)C1 (stereo not drawn) [CP-045, 6-(2-(4-(5-acetyl-3-(7-(difluoromethyl)-6-(1-methyl-1H-pyrazol-4-yl)-3,4-dihydroquinolin-1(2H)-yl)-4,5,6,7-tetrahydro-1H-pyrazolo[4,3-c]pyridin-1-yl)cyclohexyl)ethyl)-2-(2,6-dioxopiperidin-3-yl)-5,6,7,8-tetrahydro-1H-pyrrolo[3,4-g]isoquinoline-1,3(2H)-dione] | < 100 | < 100 | > 90 | < 10 | < 10 | > 70 |

Continued, values first:

| IC50 (HL60) [nM] | IC50 (22Rv1 cells) [nM] | Dmax (CBP) [%] | DC50 (CBP) [nM] | DC50 (P300) [nM] | Dmax (P300) [%] | Structure (SMILES) |
| --- | --- | --- | --- | --- | --- | --- |
| < 100 | < 1000 | > 90 | < 10 | < 10 | > 70 | CC(=O)N1CCc2c(c(N3CCCc4cc(C5CCCCC5)c(C(F)F)cc43)nn2C2CCN(C(=O)CN3Cc4cc5c(cc4C3)C(=O)N(C3CCC(=O)NC3=O)C5=O)CC2)C1 (stereo not drawn) [CP-021, 6-(2-(4-(5-acetyl-3-(6-cyclohexyl-7-(difluoromethyl)-3,4-dihydroquinolin-1(2H)-yl)-4,5,6,7-tetrahydro-1H-pyrazolo[4,3-c]pyridin-1-yl)piperidin-1-yl)-2-oxoethyl)-2-(2,6-dioxopiperidin-3-yl)-6,7-dihydropyrrolo[3,4-f]isoindole-1,3(2H,5H)-dione] |
| < 100 | < 100 | > 90 | < 10 | < 10 | > 90 | CC(=O)N1CCc2c(c(N3CCCc4cc(-c5ccccc5)c(C(F)F)cc43)nn2C2CCN(C(=O)CN3Cc4cc5c(cc4C3)C(=O)N(C3CCC(=O)NC3=O)C5=O)CC2)C1 (stereo not drawn) [CP-022, 6-(2-(4-(5-acetyl-3-(7-(difluoromethyl)-6-phenyl-3,4-dihydroquinolin-1(2H)-yl)-4,5,6,7-tetrahydro-1H-pyrazolo[4,3-c]pyridin-1-yl)piperidin-1-yl)-2-oxoethyl)-2-(2,6-dioxopiperidin-3-yl)-6,7-dihydropyrrolo[3,4-f]isoindole-1,3(2H,5H)-dione] |
| < 100 | < 1000 | > 90 | < 10 | < 10 | > 70 | CC(=O)N1CCc2c(c(N3CCCc4cc(-c5ccc(F)cc5)c(C(F)F)cc43)nn2C2CCN(C(=O)CN3Cc4cc5c(cc4C3)C(=O)N(C3CCC(=O)NC3=O)C5=O)CC2)C1 (stereo not drawn) [CP-023, 6-(2-(4-(5-acetyl-3-(7-(difluoromethyl)-6-(4-fluorophenyl)-3,4-dihydroquinolin-1(2H)-yl)-4,5,6,7-tetrahydro-1H-pyrazolo[4,3-c]pyridin-1-yl)piperidin-1-yl)-2-oxoethyl)-2-(2,6-dioxopiperidin-3-yl)-6,7-dihydropyrrolo[3,4-f]isoindole-1,3(2H,5H)-dione] |
| < 100 | < 1000 | > 90 | < 10 | < 10 | > 70 | CC(=O)N1CCc2c(c(N3CCCc4cc(-c5cccs5)c(C(F)F)cc43)nn2C2CCN(C(=O)CN3Cc4cc5c(cc4C3)C(=O)N(C3CCC(=O)NC3=O)C5=O)CC2)C1 (stereo not drawn) [CP-024, 6-(2-(4-(5-acetyl-3-(7-(difluoromethyl)-6-(thiophen-2-yl)-3,4-dihydroquinolin-1(2H)-yl)-4,5,6,7-tetrahydro-1H-pyrazolo[4,3-c]pyridin-1-yl)piperidin-1-yl)-2-oxoethyl)-2-(2,6-dioxopiperidin-3-yl)-6,7-dihydropyrrolo[3,4-f]isoindole-1,3(2H,5H)-dione] |
| < 100 | < 1000 | < 50 | < 10 | < 10 | > 70 | CC(=O)N1CCc2c(c(N3CCCc4cc(CCC5CC5)c(C(F)F)cc43)nn2C2CCN(C(=O)CN3Cc4cc5c(cc4C3)C(=O)N(C3CCC(=O)NC3=O)C5=O)CC2)C1 (stereo not drawn) [CP-025, 6-(2-(4-(5-acetyl-3-(6-(2-cyclopropylethyl)-7-(difluoromethyl)-3,4-dihydroquinolin-1(2H)-yl)-4,5,6,7-tetrahydro-1H-pyrazolo[4,3-c]pyridin-1-yl)piperidin-1-yl)-2-oxoethyl)-2-(2,6-dioxopiperidin-3-yl)-6,7-dihydropyrrolo[3,4-f]isoindole-1,3(2H,5H)-dione] |
| < 100 | < 1000 | > 90 | < 10 | < 10 | > 70 | CC(=O)N1CCc2c(c(N3CCCc4cc(CCC(C)C)c(C(F)F)cc43)nn2C2CCN(C(=O)CN3Cc4cc5c(cc4C3)C(=O)N(C3CCC(=O)NC3=O)C5=O)CC2)C1 (stereo not drawn) [CP-026, 6-(2-(4-(5-acetyl-3-(7-(difluoromethyl)-6-isopentyl-3,4-dihydroquinolin-1(2H)-yl)-4,5,6,7-tetrahydro-1H-pyrazolo[4,3-c]pyridin-1-yl)piperidin-1-yl)-2-oxoethyl)-2-(2,6-dioxopiperidin-3-yl)-6,7-dihydropyrrolo[3,4-f]isoindole-1,3(2H,5H)-dione] |
